Measurements taken from patent publication US4882326A, “Piperidine compounds and pharmaceutical uses thereof” (Yoshitomi Pharmaceutical Industries, Ltd., priority 1987, dated 1989).

Tests used:
[1] = molecular target: T1, angiotensin I converting enzyme (Cavia porcellus, UniProt H0UWL7); assay: Inhibitory effect on angiotensin I-induced constriction in isolated guinea pig ileum (indirect inhibition of angiotensin I converting enzyme); format: cell-based; conditions: angiotensin I 10^-8 M, 37° C.
T1 construct: isolated guinea pig ileum preparation; from tissue; host or cells: isolated guinea pig ileum
T1 sequence (H0UWL7 33-1302): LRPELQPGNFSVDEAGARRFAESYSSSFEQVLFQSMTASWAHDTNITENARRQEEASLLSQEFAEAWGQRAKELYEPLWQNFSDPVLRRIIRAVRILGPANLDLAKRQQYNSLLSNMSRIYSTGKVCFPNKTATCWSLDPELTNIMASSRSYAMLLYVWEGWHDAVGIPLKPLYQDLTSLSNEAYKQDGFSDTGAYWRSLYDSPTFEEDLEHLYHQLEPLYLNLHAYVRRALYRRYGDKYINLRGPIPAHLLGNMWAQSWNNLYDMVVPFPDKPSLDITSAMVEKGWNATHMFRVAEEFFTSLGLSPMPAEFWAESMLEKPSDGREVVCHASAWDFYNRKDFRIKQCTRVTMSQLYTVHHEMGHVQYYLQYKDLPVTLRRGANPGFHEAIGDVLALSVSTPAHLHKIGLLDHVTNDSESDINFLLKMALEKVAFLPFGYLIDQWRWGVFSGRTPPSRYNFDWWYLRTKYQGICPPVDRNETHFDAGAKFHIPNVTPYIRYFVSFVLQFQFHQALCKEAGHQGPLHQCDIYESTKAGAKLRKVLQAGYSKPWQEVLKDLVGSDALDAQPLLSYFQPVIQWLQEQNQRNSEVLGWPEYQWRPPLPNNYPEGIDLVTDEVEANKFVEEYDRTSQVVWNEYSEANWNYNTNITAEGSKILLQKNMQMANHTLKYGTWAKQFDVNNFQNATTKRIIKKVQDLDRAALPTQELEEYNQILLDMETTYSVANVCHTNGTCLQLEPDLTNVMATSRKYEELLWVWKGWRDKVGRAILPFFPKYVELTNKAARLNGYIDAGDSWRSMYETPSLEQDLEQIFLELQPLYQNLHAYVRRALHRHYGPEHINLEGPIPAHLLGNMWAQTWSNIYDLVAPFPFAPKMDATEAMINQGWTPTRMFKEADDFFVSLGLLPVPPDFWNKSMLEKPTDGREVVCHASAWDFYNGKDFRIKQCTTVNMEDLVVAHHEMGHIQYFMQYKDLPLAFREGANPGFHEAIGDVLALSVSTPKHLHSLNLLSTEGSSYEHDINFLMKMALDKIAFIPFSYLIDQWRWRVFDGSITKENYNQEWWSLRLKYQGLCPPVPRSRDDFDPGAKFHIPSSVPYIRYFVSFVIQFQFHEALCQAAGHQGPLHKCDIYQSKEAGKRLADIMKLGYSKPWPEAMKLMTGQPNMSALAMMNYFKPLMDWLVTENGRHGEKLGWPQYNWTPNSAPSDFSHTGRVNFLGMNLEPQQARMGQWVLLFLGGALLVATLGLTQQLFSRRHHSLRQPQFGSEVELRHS
Source text: Experiment 1: Inhibitory effect on angiotensin I-induced constriction in isolated guinea pig ileum
According to the method of Goldberg et al (J. Pharmacol. Exp. Ther., vol. 204, No. 2, p. 271, 1977), the inhibitory effect on angiotensin I converting enzyme was indirectly examined as an antagonistic activity on angiotensin I-induced constriction in isolated guinea pig ileum preparation. Guinea pig ileum preparations, in the presence of 1 g load, were suspended in Magnus bath filled with Kreb's solution containing atropine and maintained at 37° C. by warming, and then bubbled with a mixed gas (95%O2 +5%CO2). Angiotensin I (10^-8 M)-induced constrictions were measured with a recorder through a force displacement transducer (Nippon Denki San-ei, 45169A). Inhibitory rates of the test compounds were indicated on a graph and the rate of 50% inhibition (IC50) was calculated.

[2] = test system: angiotensin I-induced pressor response; assay: Effect on angiotensin I-induced pressor response in rats; format: in vivo, Wistar male rats; conditions: 10 mg/kg, p.o.; for Inhibitory rate (%) of pressor response to angiotensin I at each hour: angiotensin I 300 ng/kg i.v., mean value±standard error
Protocol: Experiment 2: Effect on angiotensin I-induced pressor response in rats
Groups of 10 Wistar male rats weighing about 200 g were implanted with a catheter into the left carotid artery and femoral vein under ether anesthesia. More than 24 hours after operation, mean blood pressure was measured from the carotid artery with a pressure transducer (Nippon Denki San-ei, 142 type). Angiotensin I (300 ng/kg) was injected to the left femoral vein through catheter to induce pressor response. Then 10 mg/kg of the test compounds, suspended in 0.5% methylcellulose solution, were given orally. At every hour between 1 to 10 hours, and 24 hours after the administration, the pressor response was examined by the injection of angiotensin I. The inhibitory rate (%) against the pressor responses was determined and the results were summarized in Table 1. The values in the Table represent "mean value±standard error".

IC50 [1]	Structure (SMILES)	Inhibitory rate (%) of pressor response to angiotensin I at each hour ([2]; 1 hour)	Inhibitory rate (%) of pressor response to angiotensin I at each hour ([2]; 2 hours)	Inhibitory rate (%) of pressor response to angiotensin I at each hour ([2]; 3 hours)	Inhibitory rate (%) of pressor response to angiotensin I at each hour ([2]; 4 hours)	Inhibitory rate (%) of pressor response to angiotensin I at each hour ([2]; 5 hours)	Inhibitory rate (%) of pressor response to angiotensin I at each hour ([2]; 6 hours)	Inhibitory rate (%) of pressor response to angiotensin I at each hour ([2]; 7 hours)	Inhibitory rate (%) of pressor response to angiotensin I at each hour ([2]; 8 hours)	Inhibitory rate (%) of pressor response to angiotensin I at each hour ([2]; 9 hours)	Inhibitory rate (%) of pressor response to angiotensin I at each hour ([2]; 10 hours)	Inhibitory rate (%) of pressor response to angiotensin I at each hour ([2]; 24 hours)	inhibitory action against the angiotensin I-induced pressor response, strength and duration vs CV-5975 ([2]; rats, comparison in words)
3.5 nM	O=C(O)CN1C(=O)[C@@H](N[C@@H](CCCCC2CCNCC2)C(=O)O)CSc2ccccc21 [CV-5975, 3(R)-[1(S)-carboxy-5-(4-piperidyl)pentyl]amino-4-oxo-2,3,4,5-tetrahydro-1,5-benzothiazepine-5-acetic acid, reference compound]	-95 ± 3%	-95 ± 3%	-89 ± 7%	-85 ± 7%	-82 ± 8%	-89 ± 6%	-86 ± 6%	-80 ± 7%	-84 ± 7%	-75 ± 9%	-45 ± 10%	–
1.6 nM	O.O=C(O)CN1C(=O)C(N[C@@H](CSCCC2CCNCC2)C(=O)O)CCc2ccccc21 (stereo partly drawn) [Example 7, 3-[1(R)-carboxy-2-{2-(4-piperidyl)ethylthio}ethyl]amino-2-oxo-2,3,4,5-tetrahydro-1H-1-benzazepine-1-acetic acid monohydrate]	-96 ± 2%	-100 ± 0%	-94 ± 5%	-97 ± 3%	-100 ± 0%	-100 ± 0%	-100 ± 0%	-98 ± 2%	-100 ± 0%	-90 ± 6%	-77 ± 10%	exhibits stronger inhibitory action against the angiotensin I-induced pressor response and more long-lasting effect than C-5975
